Results as given in ChEMBL document CHEMBL3588767, “Inhibitory activities of biflavonoids against amyloid-β peptide 42 cytotoxicity in PC-12 cells” (Bioorg Med Chem Lett, 2015).

Key:
[1] = Neuroprotective activity against 0.1 uM amyloid beta 42-induced toxicity in rat PC12 cells assessed as cell viability at 10 uM after 24 hrs by MTT assay; format: functional, PC-12
[2] = Neuroprotective activity against 0.1 uM amyloid beta 42-induced toxicity in rat PC12 cells assessed as cell viability after 24 hrs by MTT assay; format: functional, cell-based; details: PC-12, 24 h
[3] = Neuroprotective activity against 0.1 uM amyloid beta 42-induced toxicity in rat PC12 cells assessed as cell viability at 50 uM after 24 hrs by MTT assay; format: functional, PC-12

COc1cc(O)c2c(=O)cc(-c3ccc(O)c(-c4c(OC)cc(O)c5c(=O)cc(-c6ccc(O)cc6)oc45)c3)oc2c1
Activity [1]: 52.6%

COc1cc(O)c2c(=O)cc(-c3ccc(OC)c(-c4c(OC)cc(O)c5c(=O)cc(-c6ccc(O)cc6)oc45)c3)oc2c1
Activity [1]: 65.3%

COc1ccc(-c2cc(=O)c3c(O)cc(O)cc3o2)cc1-c1c(OC)cc(O)c2c(=O)cc(-c3ccc(O)cc3)oc12
Activity [1]: 56.5%

COc1ccc(-c2cc(=O)c3c(O)cc(OC)c(-c4c(OC)cc(O)c5c(=O)cc(-c6ccc(OC)cc6)oc45)c3o2)cc1
Activity [1]: 46.7%

COc1cc2oc(-c3ccc(O)cc3)cc(=O)c2c(O)c1-c1cc(-c2cc(=O)c3c(O)cc(O)cc3o2)ccc1O
Activity [1]: 38.5%

COc1cc2oc(-c3ccc(O)cc3)cc(=O)c2c(O)c1Oc1ccc(-c2cc(=O)c3c(O)cc(O)cc3o2)cc1
Activity [1]: 65.7%

COc1cc(O)c2c(=O)cc(-c3ccc(Oc4c(OC)cc5oc(-c6ccc(O)cc6)cc(=O)c5c4O)cc3)oc2c1
Activity [1]: 55.5%

COc1ccc(-c2cc(=O)c3c(O)cc(OC)c(-c4cc(-c5cc(=O)c6c(O)cc(OC)cc6o5)ccc4OC)c3o2)cc1
Activity [1]: 49.9%

COc1ccc(-c2cc(=O)c3c(O)cc(OC)c(-c4cc(-c5cc(=O)c6c(O)cc(O)cc6o5)ccc4O)c3o2)cc1 [7'',4'''-dimethylamentoflavone]
Activity [1]: 55.3%

O=c1cc(-c2ccc(O)c(-c3c(O)cc(O)c4c(=O)cc(-c5ccc(O)cc5)oc34)c2)oc2cc(O)cc(O)c12 [AMENTOFLAVONE]
Activity [1]: 37.6%

O=c1cc(-c2ccc(O)cc2)oc2cc(O)cc(O)c12 [APIGENIN]
Activity [1]: 41%

COc1ccc(-c2cc(=O)c3c(O)cc(O)cc3o2)cc1-c1c(O)cc(O)c2c(=O)cc(-c3ccc(O)cc3)oc12 [BILOBETIN]
Activity [1]: 44.7%

O=c1cc(-c2ccc(O)cc2)oc2c(-c3c(O)cc(O)c4c(=O)cc(-c5ccc(O)cc5)oc34)c(O)cc(O)c12 [CUPRESSUFLAVONE]
Activity [1]: 31.7%

O=C(O[C@@H]1Cc2c(O)cc(O)cc2O[C@@H]1c1cc(O)c(O)c(O)c1)c1cc(O)c(O)c(O)c1 [EPIGALOCATECHIN GALLATE]
Activity [1]: 49.5%

COc1cc(O)c2c(=O)cc(-c3ccc(OC)c(-c4c(O)cc(O)c5c(=O)cc(-c6ccc(O)cc6)oc45)c3)oc2c1 [GINKGETIN]
Activity [1]: 59.8%

COc1ccc(-c2cc(=O)c3c(O)cc(OC)c(-c4cc(-c5cc(=O)c6c(O)cc(OC)cc6o5)ccc4O)c3o2)cc1 [HEVEAFLAVONE]
Activity [1]: 45.1%

O=c1cc(-c2ccc(Oc3c(O)cc4oc(-c5ccc(O)cc5)cc(=O)c4c3O)cc2)oc2cc(O)cc(O)c12 [HINOKIFLAVONE]
Activity [1]: 38.7%

COc1ccc(-c2cc(=O)c3c(O)cc(O)c(-c4cc(-c5cc(=O)c6c(O)cc(O)cc6o5)ccc4OC)c3o2)cc1 [ISOGINKGETIN]
EC50 [2]: 5.18 µM | Activity [1]: 83.1%

COc1ccc(-c2cc(=O)c3c(O)cc(OC)c(-c4cc(-c5cc(=O)c6c(O)cc(O)cc6o5)ccc4OC)c3o2)cc1 [KAYAFLAVONE]
EC50 [2]: 5.29 µM | Activity [3]: 100% | Activity [1]: 80.5%

COc1ccc(-c2cc(=O)c3c(O)cc(O)c(-c4cc(-c5cc(=O)c6c(O)cc(O)cc6o5)ccc4O)c3o2)cc1 [PODOCARPUSFLAVONE A]
Activity [1]: 49.3%

COc1ccc(-c2cc(=O)c3c(O)cc(O)c(-c4cc(-c5cc(=O)c6c(O)cc(OC)cc6o5)ccc4O)c3o2)cc1 [PODOCARPUSFLAVONE B]
EC50 [2]: 10.8 µM | Activity [1]: 76.4%

COc1ccc(-c2cc(=O)c3c(O)cc(O)c(-c4cc(-c5cc(=O)c6c(O)cc(OC)cc6o5)ccc4OC)c3o2)cc1 [SCIADOPITISIN]
EC50 [2]: 9.84 µM | Activity [3]: 100% | Activity [1]: 83.1%

COc1cc(O)c2c(=O)cc(-c3ccc(O)c(-c4c(O)cc(O)c5c(=O)cc(-c6ccc(O)cc6)oc45)c3)oc2c1 [SEQUOIAFLAVONE]
Activity [1]: 39.3%

COc1cc(O)c2c(=O)cc(-c3ccc(O)cc3)oc2c1-c1cc(-c2cc(=O)c3c(O)cc(O)cc3o2)ccc1O [SOTETSUFLAVONE]
Activity [1]: 34.2%
